Source: publication PMC9410094 (Marine Drugs, 2022)
In brackets after ≈: the same amount, converted by molar mass. Positions of bridges follow the written chain, without caps; N, C: chain ends. Residues, ends and D or L forms follow the SMILES beside them.

What was measured:
E. coli ATCC 25922 = assay: Mice septicemia model, survival; details: BALB/c mice, n = 8, E. coli ATCC 25922 i.p. with 2.5% mucin; for Therapeutic efficacy (survival) after one-week experiment: peptide i.p. 10 mg/kg at 1 and 4 h post-infection, 7 days
Experimental: Ciprofloxacin (the single dose of 10 mg/kg) and saline were used as the positive and negative controls, respectively. […] Mice were controlled once daily for their health status during 7 post-infection days.
Then, we examined an efficacy of AMPs in the mice septicemia model using 8 animals in a group (Figure 10B).
Experiments were performed with female 8–10-week-old BALB/c mice (22–24 g, “Andreevka” laboratory animal nursery FMBA, Russia). […] All animal experiments were performed at the State Research Center for Applied Microbiology and Biotechnology (SRCAMB) in Obolensk, Russia. The animals were housed in groups of 5 in polycarbonate cages. Food and water were provided ad libitum.
A total of 4 groups with 8 animals were used. The first group received ciprofloxacin (Sigma, Kawasaki, Kanagawa, Japan) administered i.p. once (1 h post-infection) at a dose of 10 mg/kg. The second group received saline (as a vehicle control) administered i.p. once (1 h post-infection). […] Survival was monitored for 7 days. After that survived animals were euthanized by CO2 asphyxiation.

E. coli 3421/E19 = assay: Neutropenic mice peritonitis model; format: in vivo, BALB/c mice; details: for Bacterial burden in mice blood (in words) / Reduction of the CFU level in peritoneal fluid (PF): neutropenic BALB/c mice, CFU 5 h after treatment; for Bacterial burden in mice blood (in words): n = 5, i.p. infection, single i.v. dose 1 h post-infection (AMPs 10 mg/kg, polymyxin B 5 mg/kg); for Reduction of the CFU level in peritoneal fluid (PF): n = 5, single i.v. dose (AMPs 10 mg/kg, polymyxin B 5 mg/kg); for Efficacy in the neutropenic peritonitis model (in words): single i.v. dose of 10 mg/kg, E. coli 3421/E19
Experimental: Immune-deficient mice were inoculated intraperitoneally (i.p.) with bacterial suspension. Antimicrobial agent was administered 1 h post-infection, and colony counts in blood and peritoneal fluid (PF) were determined 5 h later.
(A) The mice peritonitis model. […] Horizontal bars indicate means ± SD.
Food and water were provided ad libitum.
CFU counts were determined from blood and peritoneal fluid (PF) 5 h after treatment. The mice were euthanized by CO2 asphyxiation and blood was collected by axillary cut down. A total of 2 mL sterile saline was injected i.p. and the abdomen gently massaged before it was opened, fluid sampled with a pipette, serially diluted and placed on Endo agar supplemented with 20 µg/mL of tetracycline for CFU identification.

[1] = RP-HPLC retention time as measure of hydrophobicity; format: physicochemical; details: chromatographic, semipreparative RP-HPLC, C18 column, linear gradient 5 to 80% (v/v) acetonitrile in water with 0.1% TFA within 50 minutes; used as measure of hydrophobicity
Experimental: Table S1. Characteristics of the recombinant AMPs.
1 Mean Kyte–Doolittle hydrophobicity index (GRAVY) was calculated using the Expasy ProtParam tool. The maximum and minimum values of this index are +4.5 and -4.5 for poly-Ile and poly-Arg sequences, respectively. 2 Retention times were measured using semipreparative reversed-phase high-performance liquid chromatography (RP - HPLC) on a C18 column with a linear gradient from 5 to 80% ( v/v) acetonitrile in water containing 0.1% trifluoroacetic […]
acid (TFA) within 50 minutes. […]

Gram-positive bacteria = format: cell-based; details: 24 h
Experimental: (§1) The antimicrobial activity of the peptides was determined via the method of two-fold serial dilutions in sterile 96-well flat-bottom polystyrene microplates (Eppendorf #0030730011) in Mueller–Hinton broth (MHB, Sigma, Kawasaki, Kanagawa, Japan) supplemented with 0.9% NaCl. Bacterial cultures were grown in MHB at 37 °C until the culture reached an optical density OD600 of 1.0 and diluted with the broth so that to reach a final cell concentration of 10^6 CFU/mL. Then 50 μL of the test culture were added to 50 μL of aqueous solutions of the peptides, previously diluted in 0.1% sterilized bovine serum albumin (BSA) to reduce non-specific binding of the peptides to the surface of the plates. Next, the plate was incubated for 24 h at 37 °C and 950 rpm on the plate thermoshaker (Biosan). The values of the minimum inhibitory concentrations (MIC) were determined as the minimum concentration of the peptide, at which there is no culture growth. The results were expressed as the median values of three independent experiments performed in triplicate.

E. coli ML-35p = tested on: E. coli ML-35p
Experimental: Initially, antimicrobial activity of abarenicin and UuBRI-21 was evaluated against the reference strain of E. coli (ML-35p) under various conditions (Table 1). Minimal inhibitory concentrations (MICs) were determined via two-fold serial dilutions in 96-well polystyrene plates. Serial dilutions were made in 0.1% bovine serum albumin (BSA) to minimize the absorption of peptides on the surface of plate wells. Mueller–Hinton broth (MHB) supplemented with 0.9% NaCl was used as the standardized medium.
as §1, with “Bacterial” for “The antimicrobial activity of the peptides was determined via the method of two-fold serial dilutions in sterile 96-well flat-bottom polystyrene microplates (Eppendorf #0030730011) in Mueller–Hinton broth (MHB, Sigma, Kawasaki, Kanagawa, Japan) supplemented with 0.9% NaCl. Bacterial”

[2] = tested on: P. aeruginosa PAO1 mature biofilms; assay: Effect on mature biofilms, viability by MTT; details: P. aeruginosa PAO1 pre-formed biofilm, 2-h exposure
Experimental: Biofilm viability was measured by tetrazolium salt reduction (right panel). Values are presented as means ± the standard deviation (SD) of three independent experiments.
The effect of peptides on pre-formed biofilms was evaluated as follows. Biofilms were grown on a 96-well plate at 32 °C for 24 h and stirred at 120 rpm to ensure biofilm formation primarily on the wall of the wells. […] Bacterial survival in the biofilms after 2-h exposure was evaluated via a MTT assay after incubation with a tested peptide. Then, wells were rinsed with sterile water, treated with an MTT solution (Sigma, Kawasaki, Kanagawa, Japan) in PBS, and incubated for 4 h at 37 °C. Next, the medium was removed. The resulting formazan crystals were dissolved in a mixture of EtOH and DMSO (1:1) for 10 min. The optical density of the solution was measured at 570 nm. Bacterial survival was calculated as percent relative to samples without antimicrobial agent. All data were obtained from at least three independent experiments in 3 repetitions.

[3] = 25% human serum in PBS (pH 7.4) from healthy donor; details: 37 °C, up to 24 h
P. aeruginosa PAO1 = assay: Inhibition of biofilm formation, crystal violet; format: cell-based; details: 24 h, LB, 32 °C
Text: Such an adaptive and survival mechanism is mediated by biofilms, which constitutes the community of sessile bacteria embedded within the self-produced extracellular polymeric substance (EPS) that defends them from chemical, biological, and physical stress; it also […] foreign invaders. Besides the fact that EPS decreases concentration of antibiotics, bacteria inside biofilm are characterized by a reduced rate of cell divisions, an increased expression of stress response genes, an occurrence of persistent cells, and exchange of resistance genes leading to a broader spread of tolerant biofilm-growing bacteria. For the treatment of biofilm-associated infections a high concentration of antibiotics is required that also increases toxicity toward human cells. Antimicrobial peptides are able to act on certain stages of biofilm formation and various molecular targets and are considered as promising candidates for the development of new antibiofilm agents. […] Bacterial biomass amount was evaluated using the standard crystal violet assay over a 24 h incubation period with each drug. […]
Masses of biofilms were evaluated by dying with 0.1% CV. […]
The ability of peptides to influence the formation of biofilms was evaluated by the method of two-fold serial dilutions in a liquid nutrient medium. […] Further, the extracts were transferred to a new plate and absorption was measured at 570 nm. […]

Gram-negative bacteria = assay: Geometric mean of MICs, Gram-negative panel; format: cell-based; details: geometric mean (GM) of MICs against the 14 Gram-negative strains of Figure 2
Experimental: as §1

human red blood cells = format: cell-based
Experimental: Figure 4 (A) Hemolytic effect on human red blood cells after 2 h incubation (hemoglobin release assay). (B) Cytotoxicity toward transformed human embryonic kidney cells after 20 h incubation (MTT-assay). The positive control used was 0.1% Triton X-100 and sterile PBS as a negative control. Melittin was used as an additional positive control. The data are presented as the mean ± SD of three independent experiments.
The hemolytic activity of compounds was performed using human red blood cells (hRBS) of healthy donor. Fresh blood was centrifuged to separate the erythrocyte fraction for 15 min at 500 g and washed three times with cold phosphate-buffered saline (PBS) (pH 7.4), after which an 8% (v/v) suspension of erythrocytes in PBS was prepared. Then, 50 µL of erythrocyte suspension was added to the test peptides, previously were dissolved in 50 µL of 0.1% BSA. The plate was incubated for 1.5 h at 37 °C and 950 rpm on the plate thermoshaker. After incubation, the plates were centrifuged for 15 min at 1000 g to settle intact erythrocytes. Next, aliquots of the supernatant were transferred to another plate to measure the amount of hemoglobin release by the absorbance of the solution at 405 nm. As “zero lysis” we used the supernatant obtained after centrifugation of erythrocytes incubated in a PBS solution without the addition of a peptide. As “100% lysis”, we used the supernatant obtained after centrifugation of erythrocytes incubated in a 0.1% Triton X-100, causing their complete lysis. The assays were conducted three times. The quantitative data were presented as an average means with standard deviations. Hemolysis(%)=OD405(compound)−OD405(zerolysis)/OD405(100%lysis)−OD405(zerolysis)×100%

| Compound | Therapeutic efficacy (survival) after one-week experiment (E. coli ATCC 25922) | Bacterial burden in mice blood (in words) (E. coli 3421/E19) | Reduction of the CFU level in peritoneal fluid (PF) (E. coli 3421/E19) | Efficacy in the neutropenic peritonitis model (in words) (E. coli 3421/E19) | RP-HPLC Retention Time [1] | Minimum inhibitory concentration (MIC): Gram-positive Geometric mean (Gram-positive bacteria) | other results |
| --- | --- | --- | --- | --- | --- | --- | --- |
| CC(C)[C@@H]1NC(=O)[C@H](Cc2ccc(O)cc2)NC(=O)[C@H](Cc2c[nH]c3ccccc23)NC(=O)[C@@H](NC(=O)[C@H](Cc2ccccc2)NC(=O)CN)CSSC[C@@H](C(=O)N[C@@H](CC(N)=O)C(=O)O)NC(=O)[C@H](CCCNC(=N)N)NC(=O)[C@H](CCCNC(=N)N)NC(=O)[C@H](Cc2ccc(O)cc2)NC(=O)[C@@H]2CSSC[C@H](NC1=O)C(=O)N[C@@H](C)C(=O)N[C@@H](CCCNC(=N)N)C(=O)N[C@@H](CCCNC(=N)N)C(=O)N[C@@H](CC(N)=O)C(=O)NCC(=O)N[C@@H](C)C(=O)N[C@@H](CCCNC(=N)N)C(=O)N[C@@H](C(C)C)C(=O)N2 [AA139, reference compound] (H-GFCWYVCARRNGARVCYRRCN-OH; disulfide 3-20, 7-16) | 87.5% | complete reduction | ~ 5 log | effective | 25.67 min | 4 µM (≈ 10.2 µg/mL) | Fold reduction of antibacterial activity in the presence of serum (E. coli ML-35p; MHB + 0.9% NaCl with 25% FBS versus without): 4 fold; Minimum Inhibitory Concentration, MHB + 0.9% NaCl + 25% FBS (E. coli ML-35p; Table 1, medium with 25% fetal bovine serum): 1 µM; Minimum Inhibitory Concentration, MHB + 0.9% NaCl (E. coli ML-35p; Table 1, without FBS, dilutions in 0.1% BSA): 0.25 µM |
| O=C(O)c1cn(C2CC2)c2cc(N3CCNCC3)c(F)cc2c1=O [ciprofloxacin, reference compound] |  |  |  |  |  |  | Survival (in words) (E. coli ATCC 25922; single i.p. dose of 10 mg/kg 1 h post-infection): survival of all mice; Effect on bacteria inside mature biofilm (in words) [2]: not able to impair bacteria inside biofilm |
| GYCFTACYLRNGVRICYRRCN |  |  |  |  |  |  | cleaved bond [3]: glycine-Y, major |
| CC[C@H](C)[C@@H]1NC(=O)[C@H](CCCNC(=N)N)NC(=O)[C@H](C(C)C)NC(=O)CNC(=O)[C@H](CC(N)=O)NC(=O)[C@H](CCCNC(=N)N)NC(=O)[C@H](CCCNC(=N)N)NC(=O)[C@H](C)NC(=O)[C@@H]2CSSC[C@H](NC1=O)C(=O)N[C@@H](Cc1ccc(O)cc1)C(=O)N[C@@H](CCCNC(=N)N)C(=O)N[C@@H](CCCNC(=N)N)C(=O)N[C@H](C(=O)N[C@@H](CC(N)=O)C(=O)O)CSSC[C@H](NC(=O)[C@H](Cc1ccc(O)cc1)NC(=O)CN)C(=O)N[C@@H](Cc1ccccc1)C(=O)N[C@@H]([C@@H](C)O)C(=O)N[C@@H](C)C(=O)N2 [Ap9] | 100% | complete reduction | ~ 5 log | effective | 25.37 min | 3.17 µM (≈ 7.86 µg/mL) | Inhibition of biofilm formation (in words) (P. aeruginosa PAO1): more effective in biofilm prevention at sub-inhibitory concentration; Minimum inhibitory concentration (MIC): Gram-negative Geometric mean (Gram-negative bacteria): 0.26 µM (≈ 0.645 µg/mL); Hemolytic activity (in words) (human red blood cells): insignificant toxicity toward human erythrocytes; Residual viability of bacteria in mature biofilm ([2]; 16 µM): about 20% |
